Results published in patent US8822462B2, “Subunit selective NMDA receptor potentiators for the treatment of neurological conditions” (Emory University, priority 2009, dated 2014).

Legend:
[1] = tested on: native NMDA receptor responses in subthalamic neurons; assay: Patch clamp recording from slices of subthalamic nuclei, pressure-applied NMDA/glycine; type: cell-based
NR1/NR2D [2] = molecular target: NR1/NR2D (Homo sapiens, UniProt O15399+Q05586); assay: Two electrode voltage clamp, Xenopus laevis oocytes expressing NR1/NR2D; details: for Emax: read-out: 2D Max; for activity at 100 µM: read-out: 2D percent effect at the maximum tested concentration, at 100 μM; for activity at 30 µM: read-out: 2D percent effect at the maximum tested concentration, at 30 μM
NR1/NR2D [3] = molecular target: T1, NR1/NR2D (Homo sapiens, UniProt O15399); assay: as above
Target sequence in this assay (O15399 28-1336, species assumed, other chains not shown): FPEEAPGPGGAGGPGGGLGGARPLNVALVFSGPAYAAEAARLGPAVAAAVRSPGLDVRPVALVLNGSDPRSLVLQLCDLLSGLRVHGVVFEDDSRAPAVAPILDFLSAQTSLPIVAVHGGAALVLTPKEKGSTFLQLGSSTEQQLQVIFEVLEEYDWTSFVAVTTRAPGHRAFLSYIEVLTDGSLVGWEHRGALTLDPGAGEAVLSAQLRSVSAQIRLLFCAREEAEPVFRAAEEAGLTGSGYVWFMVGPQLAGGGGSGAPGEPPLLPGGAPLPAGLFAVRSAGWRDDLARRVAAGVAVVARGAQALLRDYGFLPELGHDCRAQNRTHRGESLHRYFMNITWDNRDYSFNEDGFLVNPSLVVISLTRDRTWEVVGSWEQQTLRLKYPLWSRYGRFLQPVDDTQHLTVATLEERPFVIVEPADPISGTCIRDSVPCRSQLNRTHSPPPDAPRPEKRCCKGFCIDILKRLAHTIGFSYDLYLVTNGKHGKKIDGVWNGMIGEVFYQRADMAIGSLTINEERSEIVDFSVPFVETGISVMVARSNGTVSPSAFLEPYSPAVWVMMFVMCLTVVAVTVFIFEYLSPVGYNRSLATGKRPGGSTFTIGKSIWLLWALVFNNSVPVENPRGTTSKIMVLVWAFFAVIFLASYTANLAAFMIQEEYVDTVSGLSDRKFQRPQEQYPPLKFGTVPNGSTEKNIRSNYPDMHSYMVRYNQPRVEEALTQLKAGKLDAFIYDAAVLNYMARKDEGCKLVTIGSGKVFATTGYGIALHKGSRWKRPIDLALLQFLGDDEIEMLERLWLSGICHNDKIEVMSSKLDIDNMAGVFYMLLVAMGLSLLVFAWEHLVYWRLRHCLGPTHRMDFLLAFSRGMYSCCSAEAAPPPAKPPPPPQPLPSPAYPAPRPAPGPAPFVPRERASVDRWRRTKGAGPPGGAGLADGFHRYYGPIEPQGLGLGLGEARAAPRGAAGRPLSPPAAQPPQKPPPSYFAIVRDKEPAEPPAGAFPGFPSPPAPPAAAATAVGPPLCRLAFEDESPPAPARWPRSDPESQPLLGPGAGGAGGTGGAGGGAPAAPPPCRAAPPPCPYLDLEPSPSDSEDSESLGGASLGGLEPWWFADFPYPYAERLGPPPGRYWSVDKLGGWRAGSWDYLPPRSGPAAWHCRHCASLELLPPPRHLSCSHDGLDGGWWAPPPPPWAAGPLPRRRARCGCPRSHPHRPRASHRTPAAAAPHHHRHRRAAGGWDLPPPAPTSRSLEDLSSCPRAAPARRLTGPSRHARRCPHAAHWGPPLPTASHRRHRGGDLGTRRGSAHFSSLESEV

NR1/NR2C [4] = molecular target: T2, NR1/NR2C (Homo sapiens, UniProt Q14957); assay: Two electrode voltage clamp, Xenopus laevis oocytes expressing NR1/NR2C; type: cell-based
T2 construct: expressed in transfected cells; host or cells: Xenopus laevis oocytes

NR1/NR2C [5] = molecular target: T3, NR1/NR2C (Homo sapiens, UniProt Q05586+Q14957); assay: as above; type: cell-based; details: for IC50: fitted to composite concentration-effect data, read-out: 2C IC50; for Emax: maximal effect of fit, read-out: 2C Max; for activity at 100 µM: read-out: 2C percent effect at the maximum tested concentration
T3 construct: expressed in transfected cells; host or cells: Xenopus laevis oocytes

NR1/NR2A = molecular target: T4, NR1/NR2A (Homo sapiens, UniProt Q12879); assay: Two electrode voltage clamp, Xenopus laevis oocytes expressing NR1/NR2A; type: cell-based; details: read-out: 2A percent effect at the maximum tested concentration
T4 construct: expressed in transfected cells; host or cells: Xenopus laevis oocytes
Method: (§1) In the table above, potency is expressed as fitted EC50 value to average composite concentration-effect data constructed from current responses recorded under two electrode voltage clamp from Xenopus laevis oocytes expressing either NR1/NR2A, B, C, or D, GluR1, or GluR6. No effect means less than 20% change in response amplitude at 30 μM of drug.

NR1/NR2D [6] = molecular target: T1, NR1/NR2D; assay: Single channel currents in excised outside-out patches; type: cell-based; design: expressed in transfected cells
Excerpt: Values are mean+SEM (n=14-20). […] C is the closed level; broken line is the open level.
Our initial studies varying the compound structure confirm that there are strict requirements for the position and type of substituent on the isoquinoline backbone (see Table 3).
Target sequence in this assay (O15399 28-1336, other chains not shown): as the sequence (O15399 28-1336, species assumed, other chains not shown) above

NR1/NR2B = molecular target: T5, NR1/NR2B (Homo sapiens, UniProt Q05586+Q13224); assay: Two electrode voltage clamp, Xenopus laevis oocytes expressing NR1/NR2B; type: cell-based; details: for activity at 100 µM / activity at 30 µM: read-out: 2B percent effect at the maximum tested concentration; for IC50: fitted to composite concentration-effect data, Max 0 = inhibition, read-out: 2B IC50
T5 construct: expressed in transfected cells; host or cells: Xenopus laevis oocytes
Method: as §1

[7] = tested on: recombinant NMDA receptors; assay: Voltage and pH dependence of potentiation of recombinant NMDA receptors; type: cell-based
Excerpt: FIG. 2A illustrates the subunit-selectivity with which the compounds of Formula A, including a specific compound herein referred to as DIQ-1180, acts on recombinant NMDA receptors. The structure of DIQ-1180 is shown below.
The Hill slope at both receptors for all analogues was greater than 1, consistent with a cooperative effect of binding at two sites.

T3 sequence (Q14957 20-1233, species assumed, other chains not shown): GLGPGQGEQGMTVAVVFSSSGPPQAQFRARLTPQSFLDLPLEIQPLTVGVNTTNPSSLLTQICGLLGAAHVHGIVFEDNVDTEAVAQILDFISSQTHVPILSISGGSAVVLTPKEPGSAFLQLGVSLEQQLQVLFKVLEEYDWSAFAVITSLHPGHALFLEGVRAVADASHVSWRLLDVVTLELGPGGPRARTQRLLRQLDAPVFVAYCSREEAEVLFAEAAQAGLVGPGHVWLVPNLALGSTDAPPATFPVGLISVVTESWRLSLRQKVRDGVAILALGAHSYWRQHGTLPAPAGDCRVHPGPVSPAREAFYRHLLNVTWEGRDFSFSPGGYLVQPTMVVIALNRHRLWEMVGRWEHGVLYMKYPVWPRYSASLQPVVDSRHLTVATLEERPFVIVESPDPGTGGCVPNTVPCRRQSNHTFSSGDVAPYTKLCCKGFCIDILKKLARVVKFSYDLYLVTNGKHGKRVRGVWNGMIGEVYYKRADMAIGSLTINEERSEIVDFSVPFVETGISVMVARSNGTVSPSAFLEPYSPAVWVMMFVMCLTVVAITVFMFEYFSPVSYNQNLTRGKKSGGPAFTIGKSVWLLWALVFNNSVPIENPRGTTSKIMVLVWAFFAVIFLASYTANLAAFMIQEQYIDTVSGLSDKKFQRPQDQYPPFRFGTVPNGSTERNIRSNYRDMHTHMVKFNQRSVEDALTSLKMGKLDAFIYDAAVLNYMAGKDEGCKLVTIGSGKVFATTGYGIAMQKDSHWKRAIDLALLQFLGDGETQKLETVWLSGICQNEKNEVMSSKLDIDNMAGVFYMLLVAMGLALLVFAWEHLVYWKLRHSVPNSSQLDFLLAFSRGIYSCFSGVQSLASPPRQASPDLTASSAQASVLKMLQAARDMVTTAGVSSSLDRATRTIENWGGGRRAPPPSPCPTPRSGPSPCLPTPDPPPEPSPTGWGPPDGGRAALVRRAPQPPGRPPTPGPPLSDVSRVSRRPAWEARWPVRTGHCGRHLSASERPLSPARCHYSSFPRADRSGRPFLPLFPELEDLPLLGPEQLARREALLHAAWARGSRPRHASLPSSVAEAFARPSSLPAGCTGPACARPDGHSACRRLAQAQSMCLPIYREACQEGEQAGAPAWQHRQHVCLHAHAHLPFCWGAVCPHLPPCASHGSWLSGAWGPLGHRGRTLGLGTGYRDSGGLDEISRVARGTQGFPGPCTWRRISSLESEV
Chain of NR1/NR2D (Homo sapiens, UniProt O15399+Q05586) (O15399 28-1336, species assumed, other chains not shown): as the sequence (O15399 28-1336, species assumed, other chains not shown) above
T4 sequence (Q12879 23-1464, species assumed, other chains not shown): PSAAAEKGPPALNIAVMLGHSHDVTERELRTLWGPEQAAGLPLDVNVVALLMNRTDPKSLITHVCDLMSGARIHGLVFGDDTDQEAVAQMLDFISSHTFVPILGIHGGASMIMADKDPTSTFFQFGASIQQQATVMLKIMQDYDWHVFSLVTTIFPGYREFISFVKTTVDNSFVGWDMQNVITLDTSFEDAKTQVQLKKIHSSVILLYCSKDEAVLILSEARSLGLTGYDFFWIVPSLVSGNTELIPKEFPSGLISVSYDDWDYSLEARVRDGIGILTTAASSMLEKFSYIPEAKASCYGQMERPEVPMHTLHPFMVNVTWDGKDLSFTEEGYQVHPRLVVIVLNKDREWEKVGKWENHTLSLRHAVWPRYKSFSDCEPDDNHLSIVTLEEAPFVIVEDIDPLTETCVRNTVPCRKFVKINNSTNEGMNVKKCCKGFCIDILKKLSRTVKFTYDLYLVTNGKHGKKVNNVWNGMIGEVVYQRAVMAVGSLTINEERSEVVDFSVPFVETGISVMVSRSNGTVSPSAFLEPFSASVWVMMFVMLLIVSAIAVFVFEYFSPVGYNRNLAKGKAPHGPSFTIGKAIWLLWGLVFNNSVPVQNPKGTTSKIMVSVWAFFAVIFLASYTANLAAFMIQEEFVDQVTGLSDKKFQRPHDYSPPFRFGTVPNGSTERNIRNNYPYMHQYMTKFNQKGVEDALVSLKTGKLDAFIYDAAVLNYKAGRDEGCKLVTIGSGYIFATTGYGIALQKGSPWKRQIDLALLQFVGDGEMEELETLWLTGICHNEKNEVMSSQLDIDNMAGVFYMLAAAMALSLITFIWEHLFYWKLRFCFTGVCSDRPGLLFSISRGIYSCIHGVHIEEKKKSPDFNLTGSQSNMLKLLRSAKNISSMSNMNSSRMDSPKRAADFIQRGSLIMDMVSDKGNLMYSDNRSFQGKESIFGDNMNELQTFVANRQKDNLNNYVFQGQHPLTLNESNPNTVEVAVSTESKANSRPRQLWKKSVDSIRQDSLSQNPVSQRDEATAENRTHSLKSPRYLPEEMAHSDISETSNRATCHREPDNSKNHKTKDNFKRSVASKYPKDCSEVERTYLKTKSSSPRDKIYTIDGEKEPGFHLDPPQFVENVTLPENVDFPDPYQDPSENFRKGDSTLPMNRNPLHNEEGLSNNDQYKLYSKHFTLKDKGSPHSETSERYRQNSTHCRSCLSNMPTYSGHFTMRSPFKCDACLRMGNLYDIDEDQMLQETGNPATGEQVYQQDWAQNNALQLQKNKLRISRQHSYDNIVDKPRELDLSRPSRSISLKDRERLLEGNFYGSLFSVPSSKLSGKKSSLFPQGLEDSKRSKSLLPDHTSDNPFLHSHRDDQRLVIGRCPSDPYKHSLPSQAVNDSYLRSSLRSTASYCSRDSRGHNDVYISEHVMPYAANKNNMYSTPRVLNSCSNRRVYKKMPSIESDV
T2 sequence (Q14957 20-1233, species assumed, other chains not shown): as the sequence (Q14957 20-1233, species assumed, other chains not shown) above

SMILES	IC50 (NR1/NR2D [2])	Emax (NR1/NR2D [2])	IC50 (NR1/NR2C [5])	Emax (NR1/NR2C [5])	activity at 100 µM (NR1/NR2A)	activity at 100 µM (NR1/NR2B)	activity at 100 µM (NR1/NR2D [2])	activity at 100 µM (NR1/NR2C [5])	other results
NC(CCCP(=O)(O)O)C(=O)O (racemic) [DL-APV, reference compound]	–	–	–	–	–	–	–	–	current response to pressure-applied NMDA/glycine ([1]; 100 μM): blocked
COc1ccc(OCC2c3cc(OC)c(OC)cc3CCN2C(=O)c2ccccc2)cc1 (stereo not drawn) [compound 1180]	11 µM	156%	12 µM	145%	81%	67%	–	–	EC50 (NR1/NR2D [2]): 13 µM; maximal potentiation at NR2D-containing receptors (NR1/NR2D [3]; Example 1): 162%; maximal potentiation at NR2C-containing receptors (NR1/NR2C [4]; Example 1): 181%; EC50 (NR1/NR2C [5]; Example 1, read-out: EC50 value for potentiation of NR2C-containing receptors): 11 µM; total open probability (nPo) (NR1/NR2D [6]; glutamate/glycine-activated unitary currents, increased from 0.083 without compound): 0.207; opening frequency of recombinant NR1/NR2D single channel currents (NR1/NR2D [6]; maximally effective glutamate/glycine, FIG. 2B): increased the opening frequency; opening frequency (NR1/NR2D [6]; reversed by washout): 178 % of control; current response to pressure-applied NMDA/glycine ([1]; 30 μM, listed as DIQ-1180): potentiated; voltage dependence of potentiating actions ([7]; n=7): voltage-independent; pH dependence of potentiating actions ([7]; n=10-16): pH-independent
CSC1=NCCN1C(=O)c1ccc2ccccc2c1 [compound 1402]	–	–	–	–	104%	80%	93%	103%	–
O=C(O)C1=C(NC(=O)c2ccc(Br)cc2)SC2CCCC12 (stereo not drawn) [compound 1404]	–	–	–	–	86%	68%	77%	99%	–
COC(=O)c1ccc(OCC2c3cc(OC)c(OC)cc3CCN2C(=O)c2cccc(Cl)c2)cc1 (stereo not drawn) [compound 1444]	–	–	–	–	91%	68%	111%	102%	–
COc1ccc(OCC2c3ccc(OC)cc3CCN2C(=O)c2cccc(Br)c2)cc1 (stereo not drawn) [1180-27]	1 µM	168%	1 µM	192%	107%	77%	–	–	–
COc1ccc(OCC2c3cc(OC)c(OC)cc3CCN2C(=O)c2cccc(I)c2)cc1 (stereo not drawn) [1180-11]	–	–	31 µM	431%	–	–	–	–	activity at 30 µM (NR1/NR2D [2]): 111%; activity at 30 µM (NR1/NR2A): 84%; activity at 30 µM (NR1/NR2B): 82%
COc1ccc(OCC2c3cc(OC)c(OC)cc3CCN2C(=O)c2cccc(Cl)c2Cl)cc1 (stereo not drawn) [1180-12]	–	–	2 µM	133%	–	–	–	–	activity at 30 µM (NR1/NR2D [2]): 109%; activity at 30 µM (NR1/NR2A): 97%; activity at 30 µM (NR1/NR2B): 90%
COc1ccc(OCC2c3c(cc(OC)cc3OC)CCN2C(=O)c2ccccc2)cc1 (stereo not drawn) [1180-19]	9 µM	150%	10 µM	160%	63%	100%	–	–	–
COc1ccc(OCC2c3cc(OC)c(OC)cc3CCN2C(=O)c2cccnc2)cc1 (stereo not drawn) [compound 1485]	–	–	–	–	75%	85%	74%	82%	–
Cc1ccc(C(=O)Nc2sc(C)cc2C(=O)O)cc1 [compound 1395]	–	–	–	–	92%	94%	77%	95%	–
COc1ccc(/C=C/C2c3cc(OC)c(OC)cc3CCN2C(=O)c2cccc(Cl)c2)cc1 (stereo not drawn) [1180-31]	1.5 µM	172%	1.2 µM	190%	–	–	–	–	activity at 30 µM (NR1/NR2A): 95%; activity at 30 µM (NR1/NR2B): 82%
COc1cc2c(cc1OC)C(COc1ccccc1)N(C(=O)c1ccccc1)CC2 (stereo not drawn) [1180-2]	–	–	–	–	100%	101%	81%	77%	–
CSC1=NCCN1C(=O)c1ccc2ccccc2c1 [compound 1397]	–	–	–	–	–	–	–	–	2D percent effect at the maximum tested concentration (NR1/NR2D [3]; at 100 μM): 87% at 100 μM; 2C percent effect at the maximum tested concentration (NR1/NR2C [4]; at 100 μM): 98% at 100 μM
Cc1cc(C(=O)O)c(NC(=O)c2ccccc2)s1 [compound 1396]	–	–	–	–	96%	97%	81%	95%	–
CCc1ccc(OCC2c3cc(OC)c(OC)cc3CCN2C(=O)c2ccccc2)cc1 (stereo not drawn) [compound 1366]	–	–	3 µM	121%	98%	97%	108%	–	–
COc1ccc(OCC2c3cc(OC)c(OC)cc3CCN2C(=O)c2ccc([N+](=O)[O-])cc2)cc1 (stereo not drawn) [compound 1370]	–	–	–	–	77%	78%	95%	83%	–
COc1cc2c(cc1OC)C(COc1ccccc1OC)N(C(=O)c1cccc(Cl)c1)CC2 (stereo not drawn) [1180-8]	–	–	–	–	99%	89%	84%	73%	–
COc1ccc(OCC2c3cc(OC)c(OC)cc3CCN2C(=O)c2ccccn2)cc1 (stereo not drawn) [compound 1484]	–	–	–	–	100%	80%	84%	76%	–
CC(C)(C)c1ccc(CSc2nc(N)cc(O)n2)cc1 [compound 1563]	68 µM	614%	39 µM	424%	91%	–	–	–	IC50 (NR1/NR2B): 24 µM
CC(C)(C)c1ccc(C(=O)Nc2scc(-c3ccccc3)c2C(=O)O)cc1 [compound 1406]	44 µM	351%	45 µM	341%	75%	–	–	–	IC50 (NR1/NR2B): 37 µM
O=C(O)c1c(NC(=O)c2cccc3ccccc23)sc2c1CCC2 [compound 1441]	–	–	–	–	81%	–	86%	78%	IC50 (NR1/NR2B): 43 µM
Cc1ccc(-c2csc(NC(=O)c3ccc(C(C)(C)C)cc3)c2C(=O)O)cc1 [compound 1434]	18 µM	273%	16 µM	224%	121%	–	–	–	IC50 (NR1/NR2B): 11 µM
COc1ccc(OCC2c3ccc(OC)cc3CCN2C(=O)c2cccc(Cl)c2)cc1 (stereo not drawn) [1180-26]	1 µM	185%	0.8 µM	196%	93%	75%	–	–	–
COc1ccc(OCC2c3cc(OC)c(OC)cc3CCN2C(=O)c2ccc(F)c(Cl)c2)cc1 (stereo not drawn) [1180-18]	7 µM	206%	6 µM	226%	136%	95%	–	–	–
